Experimental data published in PMC9911797, “Novel TLR7/8 agonists promote activation of HIV-1 latent reservoirs and human T and NK cells” (Frontiers in Microbiology, 2023).
pEC50: −log10 of the molar value.

Assays:
[1] = system: U1 monocytic cell line (latent HIV-1); assay: HIV-1 p24 production in latently infected U1 cells (ELISA)
[2] = system: J-LAT cells co-cultured with MDDCs; assay: J-LAT and MDDC co-culture assay (GFP+ cells and TNF-α); details: 1 μM, 48 h
[3] = target: T1, hTLR7 (Homo sapiens, UniProt Q9NYK1); assay: HEK-Blue hTLR7 SEAP reporter assay; format: cell-based; details: HEK-Blue hTLR7 cells, SEAP in supernatant
T1 construct: host or cells: HEK-Blue hTLR7 (HEK293-derived)
T1 sequence (Q9NYK1 27-1049): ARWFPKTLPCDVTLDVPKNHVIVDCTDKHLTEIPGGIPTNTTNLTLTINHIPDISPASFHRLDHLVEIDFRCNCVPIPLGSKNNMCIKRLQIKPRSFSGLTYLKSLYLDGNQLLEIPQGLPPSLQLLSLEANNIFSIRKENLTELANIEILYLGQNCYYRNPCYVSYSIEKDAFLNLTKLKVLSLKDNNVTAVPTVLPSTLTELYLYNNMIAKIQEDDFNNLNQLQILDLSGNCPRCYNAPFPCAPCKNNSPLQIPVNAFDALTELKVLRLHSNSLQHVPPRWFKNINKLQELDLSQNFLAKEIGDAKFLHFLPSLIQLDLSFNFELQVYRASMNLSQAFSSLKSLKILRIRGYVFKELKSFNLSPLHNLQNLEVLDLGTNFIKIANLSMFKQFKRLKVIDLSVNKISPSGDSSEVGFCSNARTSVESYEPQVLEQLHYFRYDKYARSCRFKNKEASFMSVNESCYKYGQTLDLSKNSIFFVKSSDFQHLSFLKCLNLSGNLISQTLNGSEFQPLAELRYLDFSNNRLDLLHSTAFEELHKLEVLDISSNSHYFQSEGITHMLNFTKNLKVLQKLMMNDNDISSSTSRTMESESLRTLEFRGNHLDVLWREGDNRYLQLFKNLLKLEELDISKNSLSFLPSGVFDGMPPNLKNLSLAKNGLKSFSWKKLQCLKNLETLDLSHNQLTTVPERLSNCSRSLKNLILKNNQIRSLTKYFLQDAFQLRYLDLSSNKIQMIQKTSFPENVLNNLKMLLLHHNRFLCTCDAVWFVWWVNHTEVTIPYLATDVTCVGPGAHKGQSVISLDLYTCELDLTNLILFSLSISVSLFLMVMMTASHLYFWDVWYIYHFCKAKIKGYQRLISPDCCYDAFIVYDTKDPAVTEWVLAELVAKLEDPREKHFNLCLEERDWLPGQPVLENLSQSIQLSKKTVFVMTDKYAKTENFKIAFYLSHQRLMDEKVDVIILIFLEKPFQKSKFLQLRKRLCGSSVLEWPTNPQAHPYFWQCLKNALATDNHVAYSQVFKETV
Procedure: Starting with the lead compound, 76 pyrido [3,2-d] pyrimidine derivatives were synthesized and optimized through structural modification from the deep hydrophobic region to the solvent-exposed region. Seventy-six compounds were evaluated for their in vitro activity using HEK-Blue hTLR7 or hTLR8 reporter cells, stably expressing the human TLR7 or TLR8 and an NF-κB/AP1-inducible SEAP (secreted embryonic alkaline phosphatase reporter gene).
Add 20 μl various concentrations of TLR agonists (10 dilutions) and in a 96-well plate. Then HEK-Blue hTLR7 and hTLR8 cells were suspended to 4 × 10^5 cells/ml in HEK-Blue Detection (InvivoGen) medium and added 180 μl per well. The plates were incubated at 37°C in 5% CO2 for 12 ~ 16 h. Stimulation with a hTLR7or hTLR8 ligand activates NF-κB to induce the production of secreted embryonic alkaline phosphatase (SEAP) in the culture supernatant. SEAP could be measured at OD630nm on an ELISA plate reader.

[4] = system: PBMCs from healthy donors; assay: Surface activation markers on immune cells of healthy donor PBMCs (flow cytometry); format: cell-based, human; details: 1 μM, 24 h
From the text: TLR family is essential in connecting innate immunity with acquired immunity in fighting against infection. It was then studied whether the identified TLR7/8 agonists could activate cell populations within PBMC, thereby potentiating their effector functions. […] The representative diagram of the gating strategy for each immune cell is shown in Supplementary Figure S5. All tested TLR7/8 agonists activated CD69 and NKG2D expression on CD56^bright and CD56^dim NK cells (Figures 6A–D), as well as CD69 and CD25 expression on CD4+ and CD8+ T cells (Figures 6E–H).
Then cells were collected and washed in FACS buffer (PBS + 2%FBS). Cells were incubated by fluorescence antibodies at 4°C for 30 min. For T cells, CD3-PE-Cy7 (Biolegend), CD4-PE (BD), CD8-FITC (Biolegend), CD25-BV421 (Biolegend), CD69-BV510 (Biolegend). For NK cells, CD16-PE (Biolegend), CD56-APC (Biolegend), CD69-BV510 (Biolegend), NKG2D-BV421 (Biolegend). For monocytes, CD14-PE-Cy7 (Invitrogen), CD40-APC-Cy7 (Biolegend) HLR-DR-BV510 (Biolegend). For dendritic cells, anti-human lineage cocktail-APC (Biolegend), CD11c-PE-Cy7 (Biolegend), CD80-BV510 (Biolegend), CD86-AF488 (Biolegend).

SMILES: CCCCNc1nc(N)nc2ccc(Cc3ccc(CN(C)C)cc3)nc12 [D018]
- p24 production after TLR8 or MyD88 knockdown ([1]; 1 μM, TLR8- or MyD88-shRNA U1 vs sham-knockdown): essentially abolished the p24 production
- pEC50 ([1]; Homo sapiens, read-out: EC50 of p24 production in U1): 7.15
- GFP+ J-LAT cells and soluble TNF-α in MDDC co-culture [2]: marked increase
- pEC50 [3]: 7.40
- CD69/NKG2D on NK cells and CD69/CD25 on CD4+ and CD8+ T cells [4]: most potent
